Laboratory results taken from ChEMBL document CHEMBL1147116 (Antimicrob Agents Chemother, 2007).
Converted amounts (≈) assume the structure as drawn.

What was measured:
Streptococcus pneumoniae [1] = test: Bactericidal activity against Streptococcus pneumoniae ATCC 49619 with parC S79Y mutation at fAUC/MIC of 60 after 72 hrs in pharmacodynamic model; settings: ATCC 49619, 72 h
[2] = Half life at 175 mg/24 hrs regimen in vitro PK model; assay type: ADME
Streptococcus pneumoniae [3] = test: fAUC/MIC ratio of Streptococcus pneumoniae BSP-2443 at 198 mg
Streptococcus pneumoniae [4] = test: Bactericidal activity against Streptococcus pneumoniae ATCC 49619 at fAUC/MIC of 60 after 24 hrs in pharmacodynamic model; settings: ATCC 49619, 24 h
Streptococcus pneumoniae [5] = test: Bactericidal activity against Streptococcus pneumoniae ATCC 49619 with Parc S79Y mutation and gyrA S81F mutation at fAUC/MIC of 35 after 96 hrs in pharmacodynamic model; settings: ATCC 49619, 96 h
Streptococcus pneumoniae [6] = test: Bactericidal activity against Streptococcus pneumoniae ATCC 49619 with Parc S79Y mutation at fAUC/MIC of 35 after 24 hrs in pharmacodynamic model; settings: ATCC 49619, 24 h
[7] = Peak free concentration at 200 mg/24 hrs regimen in vitro PK model; assay type: ADME
[8] = Peak free concentration at 175 mg/24 hrs regimen in vitro PK model; assay type: ADME
[9] = Half life at 150 mg/24 hrs regimen in vitro PK model; assay type: ADME
Streptococcus pneumoniae [10] = test: Bactericidal activity against Streptococcus pneumoniae ATCC 49619 at fAUC/MIC of 67 after 24 to 96 hrs in pharmacodynamic model
Streptococcus pneumoniae [11] = test: Susceptibility of Streptococcus pneumoniae BSP-2443 by microdilution method; assay type: functional; settings: BSP2443
Streptococcus pneumoniae [12] = test: Bactericidal activity against Streptococcus pneumoniae BSP-2443 at fAUC/MIC of 62 after 24 to 96 hrs in pharmacodynamic model; settings: BSP2443
[13] = Half life at 200 mg/24 hrs regimen in vitro PK model; assay type: ADME
Streptococcus pneumoniae [14] = test: fAUC/MIC ratio of Streptococcus pneumoniae ATCC 49619 at 175 mg
Streptococcus pneumoniae [15] = test: fAUC/MIC ratio of Streptococcus pneumoniae ATCC 49619 at 100 mg
Streptococcus pneumoniae [16] = test: Bactericidal activity against Streptococcus pneumoniae ATCC 49619 at fAUC/MIC of 60 after 48 hrs in pharmacodynamic model; settings: ATCC 49619, 48 h
Streptococcus pneumoniae [17] = test: fAUC/MIC ratio of Streptococcus pneumoniae ATCC 49619 at 200 mg
Streptococcus pneumoniae [18] = test: fAUC/MIC ratio of Streptococcus pneumoniae ATCC 49619 at 150 mg
Streptococcus pneumoniae [19] = test: Bactericidal activity against Streptococcus pneumoniae ATCC 49619 at fAUC/MIC of 144 after 24 to 96 hrs in pharmacodynamic model
[20] = Peak free concentration at 150 mg/24 hrs regimen in vitro PK model; assay type: ADME
Streptococcus pneumoniae [21] = test: Susceptibility of Streptococcus pneumoniae ATCC 49619 by microdilution method; assay type: functional
[22] = Peak free concentration at 400 mg/24 hrs regimen in vitro PK model; assay type: ADME
Streptococcus pneumoniae [23] = test: fAUC/MIC ratio of Streptococcus pneumoniae BSP-2443 at 235 mg
Streptococcus pneumoniae [24] = test: Bactericidal activity against Streptococcus pneumoniae ATCC 49619 with Parc S79Y mutation and gyrA S81F mutation at fAUC/MIC of 35 after 72 hrs in pharmacodynamic model; settings: ATCC 49619, 72 h
[25] = Half life at 100 mg/24 hrs regimen in vitro PK model; assay type: ADME
Streptococcus pneumoniae [26] = test: fAUC/MIC ratio of Streptococcus pneumoniae ATCC 49619 at 400 mg
Streptococcus pneumoniae [27] = test: Bactericidal activity against Streptococcus pneumoniae BSP-2443 with parC S52G, N91D mutation at fAUC/MIC of 51 after 72 hrs in pharmacodynamic model; settings: BSP2443, 72 h
Streptococcus pneumoniae [28] = test: Bactericidal activity against Streptococcus pneumoniae ATCC 49619 with S79Y Parc mutation and S81F gyrA mutation at fAUC/MIC of 60 after 96 hrs in pharmacodynamic model; settings: ATCC 49619, 96 h
Streptococcus pneumoniae [29] = test: Bactericidal activity against Streptococcus pneumoniae ATCC 49619 at fAUC/MIC of 66 after 24 to 96 hrs in pharmacodynamic model
[30] = Peak free concentration at 100 mg/24 hrs regimen in vitro PK model; assay type: ADME
Streptococcus pneumoniae [31] = test: Bactericidal activity against Streptococcus pneumoniae ATCC 49619 with Parc S79Y mutation and gyrA S81F mutation at fAUC/MIC of 35 after 48 hrs in pharmacodynamic model; settings: ATCC 49619, 48 h
Streptococcus pneumoniae [32] = test: Bactericidal activity against Streptococcus pneumoniae BSP-2443 with parC S52G, N91D mutation and gyrA S114G mutation at fAUC/MIC of 51 after 96 hrs in pharmacodynamic model; settings: BSP2443, 96 h
[33] = Half life at 400 mg/24 hrs regimen in vitro PK model; assay type: ADME
Streptococcus pneumoniae [34] = test: Bactericidal activity against Streptococcus pneumoniae BSP-2443 at fAUC/MIC of 51 after 24 to 48 hrs in pharmacodynamic model; settings: BSP2443

**Q.** Which results are given for `COc1c(N2CCNC(C)C2)c(F)cc2c(=O)c(C(=O)O)cn(C3CC3)c12` (centres undefined) [GATIFLOXACIN]?
**A.** MIC (Streptococcus pneumoniae [1]): 0.75 µg/mL; half-life [2]: 7.57 h; fAUC/MIC (Streptococcus pneumoniae [3]): 51; MIC (Streptococcus pneumoniae [4]): 0.25 µg/mL; MIC (Streptococcus pneumoniae [5]): 8 µg/mL; MIC (Streptococcus pneumoniae [6]): 0.38 µg/mL; Activity [7]: 1.38 µg/mL; Activity [8]: 1.22 µg/mL; half-life [9]: 8.16 h; MIC (Streptococcus pneumoniae [10]): 0.19 µg/mL; MIC (Streptococcus pneumoniae [11]): 0.025 µg/mL (≈ 0.0666 µM); MIC (Streptococcus pneumoniae [12]): 0.25 µg/mL; half-life [13]: 8.65 h; fAUC/MIC (Streptococcus pneumoniae [14]): 66; fAUC/MIC (Streptococcus pneumoniae [15]): 35; MIC (Streptococcus pneumoniae [16]): 0.25 µg/mL; fAUC/MIC (Streptococcus pneumoniae [17]): 67; fAUC/MIC (Streptococcus pneumoniae [18]): 60; MIC (Streptococcus pneumoniae [19]): 0.19 µg/mL; Activity [20]: 1.13 µg/mL; MIC (Streptococcus pneumoniae [21]): 0.025 µg/mL (≈ 0.0666 µM); Activity [22]: 2.79 µg/mL; fAUC/MIC (Streptococcus pneumoniae [23]): 62; MIC (Streptococcus pneumoniae [24]): 6 µg/mL; half-life [25]: 7.65 h; fAUC/MIC (Streptococcus pneumoniae [26]): 144; MIC (Streptococcus pneumoniae [27]): 0.38 µg/mL; MIC (Streptococcus pneumoniae [28]): 4 µg/mL; MIC (Streptococcus pneumoniae [29]): 0.19 µg/mL; Activity [30]: 0.71 µg/mL; MIC (Streptococcus pneumoniae [31]): 6 µg/mL; MIC (Streptococcus pneumoniae [32]): 3 µg/mL; half-life [33]: 8.01 h; MIC (Streptococcus pneumoniae [34]): 0.25 µg/mL
